The source of these data is patent US6590071B1, “Reversible aqueous pH sensitive lipidizing reagents, compositions and methods of use” (University of Southern California, priority 1998, dated 2003).

Test [1] has as its system hyperglycemic (diabetic) Sprague Dawley rats. Kind of test: Blood glucose level in streptozotocin-induced diabetic rats after subcutaneous injection. The test is classed as in vivo, rat. As for the experimental part:
Diabetes was induced in Sprague Dawley rats using i.v. injection of 60 mg/kg, streptozotocin. Solutions of 0.5 Unit/ml insulin or REAL-insulin in borate buffer (pH 10, 0.1M) were prepared. Rats were fasted 16 h prior to the experiment and were injected subcutaneously 0.5 Unit/kg of insulin or REAL-insulin. The blood glucose level of rats was monitored at different time points for 9 h. After this time rats were fed and the blood glucose level was measured after 15 h of feeding. The rats were again fasted and blood glucose level was measured after 16 h. The period of fasting and feeding was continued for 3 days.

Test [2] concerns fasted diabetic rats. The experiment in a line: Blood glucose level in fasted diabetic rats after oral administration. The test is classed as in vivo, rat. The note with it: 10 U/kg oral, water/oil microemulsion, in 9 hours (FIG. 6). As for the experimental part:
The blood glucose level of rats was increased one week after inducing diabetes from an average of 100 mg/dl to 420 mg/dl (non-fasted rats). […] This is possibly due to the time required for REAL-insulin to be hydrolyzed and to release free insulin. After injection of insulin the fast blood glucose level of rats was back to original within 24 h. However, in the case of the rats treated with REAL-insulin, the drug effect on the fast blood glucose level lasted for 3 days (FIG. 5). Fasted diabetic rats were also administered by oral means 10 U/kg of insulin, REAL-insulin and placebo. Rats were fasted 16 h prior to oral administration. A water/oil microemulsion was used as the drug carrier.

Test [3] has as its system vasopressin deficient Brattleboro rats. The experiment in a line: In vivo effect on urine output in vasopressin deficient Brattleboro rats. The following applies: 5 μg/kg subcutaneous; for time after injection at which urine excretion was back to original: Brattleboro rats (FIG. 3); for delay in urine excretion: first 8 h (FIG. 2). More on the design: species or system rat. The method, then: REAL-AVP was injected subcutaneously in animals (5 μg/kg) and urine was collected at different time points. […] AVP and Pal-AVP have similar effects with a delay in urine excretion of 4 h. A longer delay in urine excretion, up to 6 h, was observed after injection of REAL-AVP. […] The amount of urine excretion was back to original 24 h after injection of Pal-AVP and AVP. However, the effect of REAL-AVP lasted for 3 days (FIG. 3).

No end group written: not given here.

With insulin, the “time for fast blood glucose level to be back to original” value in test [1] (0.5 U/kg subcutaneous, diabetic rats (FIG. 5)) is recorded as at most 24 h. For the same compound, in test [1] (subcutaneous, fasted diabetic rats (FIG. 4)), the “change in blood glucose level within the first hour” value is reported as “significant drop”. The “reduction of the blood glucose level” value in test [2] is “no significant reduction”.

Regarding “Pal-AVP: Direct lipidization of AVP to palmitic acid (CYFQNCPRG; ends and bridges not checked; also: palmitoylated, position not given here; UniProt P01185 20-28, looked up)”, in test [3] (Brattleboro rats), the “effectiveness compared with REAL-AVP” value is given as “not as effective as REAL-AVP” and the “delay in urine excretion” value amounted to 4 h. For the same compound, the “time after injection at which urine excretion was back to original” value in test [3] came to 24 h.

As to `NC(=O)CC[C@@H]1NC(=O)[C@H](Cc2ccccc2)NC(=O)[C@H](Cc2ccc(O)cc2)NC(=O)[C@@H](N)CSSC[C@@H](C(=O)N2CCC[C@H]2C(=O)N[C@@H](CCCN=C(N)N)C(=O)NCC(N)=O)NC(=O)[C@H](CC(N)=O)NC1=O` [AVP, Arginine vasopressin], the “time after injection at which urine excretion was back to original” value in test [3] is recorded as 24 h. Further, the “delay in urine excretion” value in test [3] (Brattleboro rats) is 4 h.
